From patent US20230087844A1, “USE OF N2-QUINCLINE OR ISOQUINOLINE SUBSTITUTED PURINE DERIVATIVES IN CANCER TREATMENT” (SHANGHAI HUAYU BIOTECHNOLOGY CO., LTD., priority 2020, published 2023)

Experiments:
[1] = tested on: AKT; assay: Inhibition of AKT phosphorylation; assay type: biochemical
From the text: FLT3 is a class III receptor tyrosine kinase and plays an important role in hematopoiesis and lymphocyte development. […] Wang et al found over 60% of 82 leukemia cell lines were FLT3 positive (Wang Y et al., (2006) Journal of Experimental Hematology 14(3): 446-449). FLT3-internal tandem duplication (ITD) is the most commonly seen mutation in AML patients, with about 17-34% of AML patients carrying such a mutation (Jia H et al., (2018) Medical Laboratory Science and Clinics 19(5): 39). […] Thus, the compounds of the disclosure with high inhibitory effect on FLT3 function may be good candidates for leukemia treatment.

[2] = tested on: SNU-5; assay: MTT tumor cell proliferation, SNU-5; assay type: cell-based; conditions: Homo sapiens; SNU-5, Gastric cancer, 72 hour
Experimental: (§1) as an exemplary compound of formula (I), was tested for its inhibitory effect on tumor cell proliferation in a MTT assay.
(§2) Briefly, cells at the log phase were collected, suspended in the cell culture medium at 4*10^4/ml density, and plated in 96-well plates, 90 μl per well. The plates were kept in a 5% CO2 and 37° C. incubator for 2 hours, and then added with 100 μg/ml, 10 μg/ml, 1 μg/ml, 0.1 μg/ml, 0.01 μg/ml or 0.001 μg/ml Compound A, 4 replicates for each cell at each compound concentration. DMSO was used in the positive control group, and another negative group was also set. After 72 hour incubation in the same incubator, 20 μl 5 mg/ml MTT reagent was added to each well. After another 4 hour incubation, each well was added with 100 μl SDS and further incubated for 12 hours. Absorbance at 570 nm was read in a reader, and IC50 was calculated.

[3] = tested on: HT-29; assay: MTT tumor cell proliferation, HT-29; assay type: cell-based; conditions: Homo sapiens; HT-29, Colon cancer, 72 hour
Experimental: as §1, §2

[4] = tested on: MCF-7; assay: MTT tumor cell proliferation, MCF-7; assay type: cell-based; conditions: Homo sapiens, MCF7; MCF-7, Breast cancer, 72 hour
Experimental: as §1, §2

[5] = tested on: THP-1; assay: MTT tumor cell proliferation, THP-1; assay type: cell-based; conditions: Homo sapiens; THP-1, Acute monocytic leukemia, 72 hour
Experimental: as §1, §2

[6] = tested on: HL-60; assay: MTT tumor cell proliferation, HL-60; assay type: cell-based; conditions: Homo sapiens; HL-60, Acute promyelocytic leukemia, 72 hour
Experimental: as §1, §2

[7] = tested on: solid cancer cell lines; assay: MTT tumor cell proliferation, solid cancer cell lines (summary); assay type: cell-based; conditions: summary of Table 2
Experimental: as §1, §2

[8] = tested on: MV-4-11 cells; assay: MV-4-11 AML xenograft in mice (Example 7); assay type: in vivo, BALB-cA nude mice; conditions: D0-20; for Complete remission: number of mice, N 6
Experimental: Mice body weights and tumor sizes were measured twice a week. The tumor volume, T/C and TGI (Tumor growth inhibition=(average tumor volume in vehicle group-average tumor volume in administration group)/average tumor volume in vehicle group ×100%) were calculated. Mice were sacrificed on Day 21.

[9] = tested on: MV-4-11 cells; assay: MV-4-11 AML xenograft in mice, combination with daunorubicin (Example 8); assay type: in vivo, BALB-cA nude mice; conditions: 30 mg/kg P.O., D0-10
Experimental: Mice body weights and tumor sizes were measured twice a week. The tumor volume, T/C and TGI (Tumor growth inhibition=(average tumor volume in vehicle group-average tumor volume in administration group)/average tumor volume in vehicle group ×100%) were calculated. Mice were sacrificed on Day 21. Female BALB-cA nude mice, 6-7 weeks old, purchased from Shanghai Ling-chang Biotech Co., Ltd, were subcutaneously inoculated with MV-4-11 cells (from ATCC). […] Mice body weights and tumor sizes were measured twice a week. The tumor volume, T/C and tumor volume based TGI were calculated as described above. Mice were sacrificed on Day 11.

[10] = tested on: H69; assay: Tumor cell death by MTT, H69; assay type: cell-based, human; conditions: 20 nM
Experimental: The in vitro inhibitory effect of Compound A alone or in combination with a PARP inhibitor on tumor cell growth was tested using human small cell lung cancer (SCLC) cell lines, including H69 (ATCC® HTB-119™), H526 (ATCC® CRL-5811™) and H446 (TCHu196, National Collection of Authenticated Cell Cultures).
Briefly, the cells were seeded into a 96-well dish with RPMI-1640 (10-040-CV, Coming cellgro) containing 10% fetal bovine serum (10270-106, GIBCO), 1% penicillin and 1% streptomycin (BaSalMedia, S110JV), at an initial density of 3×10^3 cells per well ([…]), and cultured at a 37° C., 5% CO2 humidified incubator for 24 hours. Then, the culture media were added with Compound A (final concentration at 20 nM), olaparib (APEXBIO, A4154, a PARP inhibitor, final concentration at 10 μM), Compound A + olaparib (final concentrations at20 nM and 10 μM), or PBS (vehicle), respectively, and the cells were cultured for 48 hours. Then, cell viability was determined by MTT. The test was done in triplicate.
Cell death rate was calculated by the following formula.
Cell death rate=[1−(ODtest-ODvehicle)]×100%
Cell death rates were analyzed using student's t-test, and group differences were deemed statistically significant when the p-value was lower than 0.05. Zheng-Jun Jin's Q value was calculated using the formula Q=EA+B/(EA+EB-EA×EB) to assess the combined effect of Compound A and the PARP inhibitor, wherein EA+B, EA, and EB referred to the cell death rates caused by the combined treatment, Compound A treatment and PARP inhibitor treatment, respectively. A Q value higher than 1.15 meant a synergistic […] effect.
Another PARP inhibitor, rucaparib (APEXBIO, A4156), was tested alone or with Compound A for inhibitory effect on tumor cell growth, following the protocol of Example 9.

[11] = biological target: PI3K β isoform (Homo sapiens, UniProt P42338); conditions: one of the other three isoforms
[12] = biological target: PI3K δ isoform (Homo sapiens, UniProt O00329); assay: biochemical
Sequence of PI3K δ isoform (O00329 whole entry, canonical isoform): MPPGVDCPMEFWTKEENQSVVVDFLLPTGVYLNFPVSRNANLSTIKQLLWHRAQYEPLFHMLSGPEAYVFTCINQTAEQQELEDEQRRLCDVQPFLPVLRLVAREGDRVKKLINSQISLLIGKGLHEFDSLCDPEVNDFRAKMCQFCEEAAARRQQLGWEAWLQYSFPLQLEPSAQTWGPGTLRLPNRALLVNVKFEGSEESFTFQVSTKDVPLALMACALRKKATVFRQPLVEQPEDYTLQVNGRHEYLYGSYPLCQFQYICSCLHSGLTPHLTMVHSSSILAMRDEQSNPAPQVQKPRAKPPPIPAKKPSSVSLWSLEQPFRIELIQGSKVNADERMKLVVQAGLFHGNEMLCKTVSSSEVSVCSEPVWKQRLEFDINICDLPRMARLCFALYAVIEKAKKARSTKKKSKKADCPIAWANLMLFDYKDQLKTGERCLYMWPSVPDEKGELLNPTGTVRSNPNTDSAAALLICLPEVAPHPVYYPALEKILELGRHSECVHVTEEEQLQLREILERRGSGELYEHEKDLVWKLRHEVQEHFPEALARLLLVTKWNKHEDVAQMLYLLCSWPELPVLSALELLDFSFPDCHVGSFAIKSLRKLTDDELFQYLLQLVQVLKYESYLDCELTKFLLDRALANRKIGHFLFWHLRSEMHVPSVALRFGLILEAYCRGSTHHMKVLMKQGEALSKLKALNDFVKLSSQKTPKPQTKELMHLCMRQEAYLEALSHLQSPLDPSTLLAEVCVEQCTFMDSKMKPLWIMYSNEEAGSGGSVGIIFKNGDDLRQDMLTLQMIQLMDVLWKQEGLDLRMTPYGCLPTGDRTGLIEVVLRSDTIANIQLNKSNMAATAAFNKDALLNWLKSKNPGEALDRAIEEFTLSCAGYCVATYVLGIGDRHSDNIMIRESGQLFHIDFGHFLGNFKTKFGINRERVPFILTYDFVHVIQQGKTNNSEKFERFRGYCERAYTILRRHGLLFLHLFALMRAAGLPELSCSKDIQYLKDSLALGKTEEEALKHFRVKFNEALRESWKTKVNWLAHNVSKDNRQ
Sequence of PI3K δ isoform (P27986 whole entry partner, canonical isoform): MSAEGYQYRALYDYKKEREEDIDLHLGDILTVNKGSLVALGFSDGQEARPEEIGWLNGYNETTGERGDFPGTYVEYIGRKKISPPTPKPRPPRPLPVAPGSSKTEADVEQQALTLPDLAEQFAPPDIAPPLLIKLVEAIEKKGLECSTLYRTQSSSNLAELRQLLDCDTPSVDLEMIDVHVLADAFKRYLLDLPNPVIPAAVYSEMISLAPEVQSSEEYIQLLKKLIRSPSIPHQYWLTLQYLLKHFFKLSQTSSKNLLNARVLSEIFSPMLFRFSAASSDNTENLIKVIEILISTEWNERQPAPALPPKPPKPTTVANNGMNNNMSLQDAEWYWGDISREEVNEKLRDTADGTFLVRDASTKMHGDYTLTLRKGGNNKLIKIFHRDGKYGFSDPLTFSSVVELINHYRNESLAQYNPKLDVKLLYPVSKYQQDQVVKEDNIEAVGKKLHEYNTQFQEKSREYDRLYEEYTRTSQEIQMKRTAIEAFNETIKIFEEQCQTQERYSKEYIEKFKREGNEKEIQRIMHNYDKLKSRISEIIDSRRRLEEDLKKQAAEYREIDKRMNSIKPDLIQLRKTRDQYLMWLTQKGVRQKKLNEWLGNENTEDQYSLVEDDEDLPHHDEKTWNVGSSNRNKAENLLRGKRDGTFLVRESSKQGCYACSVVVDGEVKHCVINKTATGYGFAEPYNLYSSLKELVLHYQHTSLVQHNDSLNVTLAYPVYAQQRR

Sequence of PI3K β isoform (P42338 whole entry, canonical isoform): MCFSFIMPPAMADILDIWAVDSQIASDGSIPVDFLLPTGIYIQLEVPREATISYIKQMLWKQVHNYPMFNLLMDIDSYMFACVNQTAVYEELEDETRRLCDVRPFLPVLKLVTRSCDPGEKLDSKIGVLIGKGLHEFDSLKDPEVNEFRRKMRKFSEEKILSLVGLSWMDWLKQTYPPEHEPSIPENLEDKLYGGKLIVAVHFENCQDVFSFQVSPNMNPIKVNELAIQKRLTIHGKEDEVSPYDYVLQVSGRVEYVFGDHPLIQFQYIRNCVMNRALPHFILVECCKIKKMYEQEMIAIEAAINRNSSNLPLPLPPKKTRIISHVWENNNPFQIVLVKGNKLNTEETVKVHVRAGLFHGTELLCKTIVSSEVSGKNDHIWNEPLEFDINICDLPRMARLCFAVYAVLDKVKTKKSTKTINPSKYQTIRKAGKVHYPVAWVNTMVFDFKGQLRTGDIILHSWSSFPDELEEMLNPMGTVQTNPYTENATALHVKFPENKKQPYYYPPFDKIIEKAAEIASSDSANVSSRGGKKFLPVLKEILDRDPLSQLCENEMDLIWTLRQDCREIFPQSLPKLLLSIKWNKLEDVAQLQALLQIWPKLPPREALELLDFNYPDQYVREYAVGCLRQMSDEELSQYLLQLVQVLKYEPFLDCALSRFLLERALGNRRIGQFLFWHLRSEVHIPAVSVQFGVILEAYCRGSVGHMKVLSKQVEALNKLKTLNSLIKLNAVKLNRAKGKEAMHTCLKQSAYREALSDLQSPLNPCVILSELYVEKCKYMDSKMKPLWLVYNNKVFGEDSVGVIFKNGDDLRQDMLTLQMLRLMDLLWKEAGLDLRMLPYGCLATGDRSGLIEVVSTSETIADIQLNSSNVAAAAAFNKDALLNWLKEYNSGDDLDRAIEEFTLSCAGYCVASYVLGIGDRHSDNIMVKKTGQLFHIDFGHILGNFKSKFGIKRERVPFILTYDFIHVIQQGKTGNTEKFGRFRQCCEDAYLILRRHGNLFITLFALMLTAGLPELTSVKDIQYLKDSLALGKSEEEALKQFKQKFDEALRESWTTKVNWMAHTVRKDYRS
Sequence of PI3K β isoform (P27986 whole entry partner, canonical isoform): as the sequence (P27986 whole entry partner, canonical isoform) above

SMILES: c1cnc2ccc(Nc3nc(NC4CC4)c4nc[nH]c4n3)cc2c1 [Compound A]
- EC50 [1]: ~0.1 µM
- IC50 [2]: 12.1 ± 2 µM
- IC50 [3]: 6.1 ± 0.2 µM
- IC50 [4]: 26.5 ± 7.7 µM
- IC50 [5]: 1.6 ± 1.6 µM
- IC50 [6]: 0.5 ± 0.3 µM
- IC50 [7]: ≥ 2.3 µM
- T/C (%) D21 ([8]; 30 mg/kg P.O.): 28%
- TGI (%) D21 ([8]; 30 mg/kg P.O.): 72%
- Tumor volume D0 ([8]; 30 mg/kg P.O.): 77.6 ± 3.4 mm^3
- Tumor volume D21 ([8]; 30 mg/kg P.O.): 279.2 ± 71.8 mm^3
- Complete remission ([8]; 30 mg/kg P.O.): 0
- T/C (%) D21 ([8]; 60 mg/kg P.O.): 0%
- TGI (%) D21 ([8]; 60 mg/kg P.O.): 100%
- Tumor volume D0 ([8]; 60 mg/kg P.O.): 79.3 ± 2.6 mm^3
- Tumor volume D21 ([8]; 60 mg/kg P.O.): 76.6 ± 46.2 mm^3
- Complete remission ([8]; 60 mg/kg P.O.): 3
- T/C ([9]; D11): 71%
- TGI ([9]; D11): 29%
- Tumor volume D0 ([9]; in mm³): 150.9
- Tumor volume D11 ([9]; in mm³): 2076.3
- Cell Death Rate/% 1 ([10]; 48 hours, Table 10): 6.75%
- Cell Death Rate/% 2 ([10]; 48 hours, Table 10): 6.48%
- Cell Death Rate/% 3 ([10]; 48 hours, Table 10): 6.31%
- Cell Death Rate/% mean ([10]; 48 hours, Table 10): 6.51%
- Cell Death Rate/% 1 ([10]; Example 10, Table 11): 7.36%
- Cell Death Rate/% 2 ([10]; Example 10, Table 11): 7.65%
- Cell Death Rate/% 3 ([10]; Example 10, Table 11): 7.02%
- Cell Death Rate/% mean ([10]; Example 10, Table 11): 7.34%
- EC50, PI3K β isoform [11]: at the μM level
- EC50 [12]: ~0.09 µM
